{"source": "paper PMC6934184", "about": "“Selective DNA-PKcs inhibition extends the therapeutic index of localized radiotherapy and chemotherapy” (The Journal of Clinical Investigation, 2019)", "target": "T1, TEK (TIE2) R849W (Homo sapiens, UniProt Q02763, R849W)", "T1 construct": "purchased Thermo Fisher Scientific (Life Technologies) SelectScreen", "T1 sequence (Q02763 23-1124 R849W)": "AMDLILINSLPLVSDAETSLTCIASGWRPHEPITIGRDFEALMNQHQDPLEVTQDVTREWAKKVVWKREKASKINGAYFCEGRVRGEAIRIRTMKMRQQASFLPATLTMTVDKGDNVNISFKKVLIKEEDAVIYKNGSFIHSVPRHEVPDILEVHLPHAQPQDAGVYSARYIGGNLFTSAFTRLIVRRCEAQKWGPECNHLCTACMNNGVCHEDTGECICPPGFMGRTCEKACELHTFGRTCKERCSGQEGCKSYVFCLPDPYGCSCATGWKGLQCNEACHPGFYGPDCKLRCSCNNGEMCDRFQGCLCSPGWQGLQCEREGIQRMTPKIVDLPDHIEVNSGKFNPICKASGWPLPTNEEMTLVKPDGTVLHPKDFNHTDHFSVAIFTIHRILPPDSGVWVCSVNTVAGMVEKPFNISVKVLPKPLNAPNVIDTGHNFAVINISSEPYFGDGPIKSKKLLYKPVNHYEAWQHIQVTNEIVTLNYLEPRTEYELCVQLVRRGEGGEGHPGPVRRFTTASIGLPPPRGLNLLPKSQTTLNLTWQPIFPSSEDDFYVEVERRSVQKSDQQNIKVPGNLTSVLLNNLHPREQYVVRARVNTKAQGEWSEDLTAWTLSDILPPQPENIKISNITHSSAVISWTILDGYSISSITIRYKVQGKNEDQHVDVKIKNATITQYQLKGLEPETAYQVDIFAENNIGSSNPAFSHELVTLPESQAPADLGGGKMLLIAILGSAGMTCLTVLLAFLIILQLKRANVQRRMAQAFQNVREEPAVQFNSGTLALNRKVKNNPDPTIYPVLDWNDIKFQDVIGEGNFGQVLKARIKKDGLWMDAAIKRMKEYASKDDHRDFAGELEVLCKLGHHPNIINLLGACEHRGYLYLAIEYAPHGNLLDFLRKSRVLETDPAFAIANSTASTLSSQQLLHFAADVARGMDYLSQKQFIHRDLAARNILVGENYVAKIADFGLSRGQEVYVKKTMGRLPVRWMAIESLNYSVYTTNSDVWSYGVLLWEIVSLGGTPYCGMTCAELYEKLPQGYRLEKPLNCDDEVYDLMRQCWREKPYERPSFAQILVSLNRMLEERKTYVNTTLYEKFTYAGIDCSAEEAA", "assay": "SelectScreen LanthaScreen", "format": "binding", "settings": "read-out: % displacement", "method_in_brief": "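SelectScreen broad panel; activity (Z'LYTE, Adapta) plus binding formats. ATP: Km app for CSF1R Z'LYTE; 10 for CAMK1 Adapta. Readout = % per kinase.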"}
{"compound": "CN(C(=O)CN1CCOCC1)c1ccc2sc3c(-c4cccc5c(=O)cc(N6CC7CCC(C6)O7)oc45)cccc3c2c1", "note": "[NU5455]", "values": [{"measurement": "inhibition at 1 µM", "result": -3.3, "unit": "%"}]}
